Laboratory results from patent US20070053883A1, “Neuronal cell lineages and methods of production thereof” (THE JOHNS HOPKINS UNIVERSITY, priority 2003, published 2007).
Entries after “also recorded” stand apart in the source; their conditions may differ.

Experiments:
[1] = system: Hh pathway; experiment: Shh signaling assay in NIH3T3 Shh-LIGHT Z3 cells (Gli luciferase reporter); assay type: cell-based
Experimental: (§1) Shh signaling assays. Shh signaling assays were carried out as described^16 in primary fibroblasts lacking functional Dhcr7, Sc5d or Ptch and in NIH3T3 fibroblasts. Dhcr7^−/− and Dhcr7^+/− MEFs were generated from embryonic day-9 mutant mice and Sc5h1 and Sc5d^−/− and Sc5d^+/− MEFs from embryonic day-14.5 mutant mice. We generated a reporter construct with firefly luciferase and Gli (pGL3-8xGli-luciferase) by cloning eight tandem Gli-binding sites and a lens crystallin promoter from the 8xGli-BS Luc construct^22 into the pGL3-Basic vector (Promega). We determined relative Hh pathway activity in Dhcr7^−/−, Dhcr7^+/−, Sc5d^+/+ and Sc5d^+/− MEFs from the expression of transiently transfected pGL3-8xGli-luciferase and control Renilla luciferase (pRL-SV40; Promega) vectors. In Ptch^−/− MEFs, we normalized β-galactosidase activity expressed under the control of the Ptch promoter for protein levels to determine relative Hh pathway activity. In the NIH3T3 cell clone Shh-LIGHT Z3, we normalized 8xGli-BS luciferase activity for β-galactosidase activity from stably transfected vectors (8xGli-BS Luc^22 and piZ-lacZ). We established clonal sublines of Shh-LIGHT Z3 by cotransfecting either Smo tagged with Myc epitope or SmoA1 with vector encoding G418 resistance (pGT; Invivogen). All transfections were done with Fugene 6. We carried out cyclodextrin treatments for 30 min with methyl-β-cyclodextrin (Sigma) dissolved in Dulbecco's modified Eagle medium, preceded and followed by two washes with phosphate-buffered saline. Fetal bovine serum was depleted of lipids as described^23. We purchased compactin as an active sodium salt form of mevastatin (Biomol) and dissolved it in dimethylsulfoxide.
(§2) The combination of transient cyclodextrin treatment followed by inhibition of cholesterol synthesis blocked the response to ShhNp, whereas neither treatment alone did so. FIG. 4c, Hh path way inhibition persisted for 72 h after cyclodextrin treatment. The 3-d recovery period was intended to allow replenishment of non-sterol cellular components depleted by transient cyclodextrin treatment while maintaining sterol depletion with HMG-CoA reductase inhibition by compactin. FIG. 4d, Total cellular sterols from parallel cultures of NIH3T3 (c, 36 h), Dhcr7^−/− and Sc5d^−/− (FIG. 3b) MEFs were determined by gas chromatography-mass spectrometry analysis of extracted lipids and plotted against the relative Shh pathway activity. Bars represent one standard error (quadruplicate wells).

[2] = system: Dhcr7−/− and Sc5d−/− MEFs; experiment: Sterol analysis of MEFs cultured in parallel with signaling assays; assay type: cell-based, mouse; conditions: lipid-depleted serum
Experimental: Sterol analysis. Neutral sterols were extracted and analyzed as described^24 from replicate wells of MEFs cultured in parallel with those used for signaling assays.
as §2

[3] = system: Hh pathway downstream of Ptch; experiment: Constitutive Hh pathway activity in Ptch−/− MEFs (β-galactosidase); assay type: cell-based, mouse; conditions: transient treatment with increasing concentrations of cyclodextrin in combination with compactin
Experimental: as §1, with “We carried out cyclodextrin treatments for 30 min with methyl-β-cyclodextrin (Sigma) dissolved in Dulbecco's modified Eagle medium, preceded and followed by two washes with phosphate-buffered saline. Fetal bovine serum was depleted of lipids as described^23. We purchased compactin as an active sodium salt form of mevastatin (Biomol) and dissolved it in dimethylsulfoxide.” left out

[4] = system: chick neural-plate explants; experiment: Chick neural-plate explants induced with ShhN, stained for HNF3β or lSL1; assay type: cell-based
Experimental: (§3) Chick embryos. Methyl-β-cyclodextrin (200 μl of a 10% w/v solution in L-15 medium (Sigma and Life Technologies)) was applied to windowed, fertile chick eggs (White Leghorn) after 15 h of incubation. For an average egg volume of 50 ml, the final concentration of cyclodextrin was 375 μM. After 4 d of further incubation, we processed the embryos for scanning electron microscopy. The neural plate and epidermal ectoderm was dissected from stage 9-10 chick embryos, cultured them in collagen and induced them with purified Sonic Hh N-terminal peptide ShbN^21 as described^3. Methyl-β-cyclodextrin was added to the chick explant cultures 4 h after induction with ShhN was initiated.
It was further investigated whether SSH signaling in embryonic tissues by exposing chick neural-plate explants to recombinant Shh protein (ShhN, 30 nm) in the presence of cyclodextrin (FIG. 2b). FIG. 2b provides confocal microscope images of stage 9-10 chick embryo ectoderm dissected from a region of the neural plate intermediate to the notochord and roof plate and just rostral to Hensen's node. Explants were cultured for 48 h in collagen and stained for HNF3β or lSL1, as indicated.

[5] = system: chick embryos; experiment: Cyclodextrin treatment of chick embryos in ovo, facial features by scanning electron microscopy; assay type: in vivo; conditions: 375 μM cyclodextrin in ovo, applied after 15 h of incubation, early-primitive-streak stage, embryonic day 5
Experimental: as §3
To determine how cholesterol may affect Hh signaling in embryonic development, chick embryos were exposed to cyclodextrin, a cyclic oligosaccharide that forms non-covalent complexes with sterols and can be used to extract and deplete cholesterol from living cells. […] The most severely affected embryos developed a proboscis-like structure that phenocopies the nasal rudiments of mouse embryos that are homozygous with respect to mutations in the gene Sonic hedgehog (Shh; ref. 8).
FIG. 2a provides scanning electron micrographs of facial features at embryonic day 5 of a control (control) chick embryo and of embryos exposed to 375 μM cyclodextrin (CD). […]

[6] = system: Shh autoprocessing; experiment: Analysis of Shh protein biogenesis (autoprocessing) in MEFs; assay type: cell-based, mouse; conditions: Dhcr7−/− or Sc5d−/− MEFs; transient (30 min, 3.8 mM) cyclodextrin treatment, lipid-depleted serum
Experimental: Analysis of Shh protein biogenesis. MEFs were plated in a 10-cm^2 dish (Falcon) and transfected them (Fugene 6, Roche) with a full length Shh expression construct (pRK5-Shh, 5 μg) when the cells were roughly 75% confluent. The next day, we changed the culture medium (Dulbecco's modified Eagle medium with 10% fetal bovine serum) to contain either 0.5% fetal bovine serum, 0.5% lipid-depleted serum or lipid-depleted serum after a 30-min treatment with 3.8 mM methyl-β-cyclodextrin (Sigma). After an additional 24 h in culture, we lysed the MEFs in RIPA buffer (50 mM Tris-C1, pH 7.5, 150 mM NaCl, 1% Nonidet P-40, 0.5% sodium deoxycholate, 1 mM EDTA, 1 μg ml^−1 leupeptin, 1 μg ml aprotinin^−1, 0.2 mM phenylmethylsulfonyl fluoride), immunoprecipitated Shh protein from the cell lysates with a monoclonal antibody that recognizes the N-terminal signaling domain (5E1, Developmental Studies Hybridoma Bank) and immunoblotted them with a polyclonal antibody preparation (JH134). […]

[7] = system: Hh pathway; experiment: Shh signaling assay in Dhcr7 and Sc5d MEFs (Hh-responsive firefly luciferase reporter); assay type: cell-based, mouse
Experimental: Shh signaling assays. Shh signaling assays were carried out as described^16 in primary fibroblasts lacking functional Dhcr7, Sc5d or Ptch and in NIH3T3 fibroblasts. Dhcr7^−/− and Dhcr7^+/− MEFs were generated from embryonic day-9 mutant mice and Sc5h1 and Sc5d^−/− and Sc5d^+/− MEFs from embryonic day-14.5 mutant mice. We generated a reporter construct with firefly luciferase and Gli (pGL3-8xGli-luciferase) by cloning eight tandem Gli-binding sites and a lens crystallin promoter from the 8xGli-BS Luc construct^22 into the pGL3-Basic vector (Promega). We determined relative Hh pathway activity in Dhcr7^−/−, Dhcr7^+/−, Sc5d^+/+ and Sc5d^+/− MEFs from the expression of transiently transfected pGL3-8xGli-luciferase and control Renilla luciferase (pRL-SV40; Promega) vectors. […]
The effect of cholesterol depletion on responsiveness of Dhcr7^+/− (gray bars), Dhcr7^−/− (maroon bars), Sc5d^+/− (gray bars), and Sc5d^−/− (green bars) MEFs to Shh signaling was assayed by transfection with a Hh-responsive firefly luciferase reporter and treatment with purified ShhNp (10 nM). […] For each culture condition, normalized firefly luciferase activity from control and ShhNp treated cells was used to calculate the relative induction, expressed as a percentage of the Shh induction achieved in MEFs cultured in full serum. […]

[8] = target: T1, Smo (Mus musculus, UniProt P56726); experiment: Shh pathway activation by overexpression of wild-type Smo in NIH3T3 cells; assay type: cell-based; conditions: cholesterol depletion by cyclodextrin and compactin treatments
T1 construct: expressed in transfected cells
T1 sequence (P56726 33-793): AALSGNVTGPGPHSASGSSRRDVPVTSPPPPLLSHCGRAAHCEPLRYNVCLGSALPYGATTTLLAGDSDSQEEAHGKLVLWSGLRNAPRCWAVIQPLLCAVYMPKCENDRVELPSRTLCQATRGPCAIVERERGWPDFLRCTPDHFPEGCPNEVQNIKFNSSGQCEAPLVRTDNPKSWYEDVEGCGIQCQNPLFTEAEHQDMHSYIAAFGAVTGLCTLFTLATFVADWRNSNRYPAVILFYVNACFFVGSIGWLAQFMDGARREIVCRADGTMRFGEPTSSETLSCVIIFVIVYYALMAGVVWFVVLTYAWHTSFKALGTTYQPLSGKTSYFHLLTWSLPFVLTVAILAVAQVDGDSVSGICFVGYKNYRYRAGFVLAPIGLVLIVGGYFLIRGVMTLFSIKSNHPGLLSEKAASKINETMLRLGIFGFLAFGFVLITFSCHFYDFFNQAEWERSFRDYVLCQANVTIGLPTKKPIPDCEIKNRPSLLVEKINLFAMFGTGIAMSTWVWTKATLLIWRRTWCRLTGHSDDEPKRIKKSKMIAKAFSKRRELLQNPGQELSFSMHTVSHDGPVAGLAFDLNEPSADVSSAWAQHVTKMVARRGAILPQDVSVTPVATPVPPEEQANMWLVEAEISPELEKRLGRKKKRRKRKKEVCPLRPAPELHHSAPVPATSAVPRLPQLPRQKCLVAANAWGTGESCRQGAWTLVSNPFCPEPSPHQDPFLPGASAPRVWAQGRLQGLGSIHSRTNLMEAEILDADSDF
Experimental: as §1, with “We carried out cyclodextrin treatments for 30 min with methyl-β-cyclodextrin (Sigma) dissolved in Dulbecco's modified Eagle medium, preceded and followed by two washes with phosphate-buffered saline. Fetal bovine serum was depleted of lipids as described^23. We purchased compactin as an active sodium salt form of mevastatin (Biomol) and dissolved it in dimethylsulfoxide.” left out

[9] = system: neural-crest cells; experiment: BMP-induced migration of neural-crest cells from dorsal neural plate explants; assay type: cell-based, chick; conditions: 400 μM cyclodextrin alone, 48 h of culture
Experimental: as §3
Dorsal neural plate progenitor cells and an endogenous source of BMP, the adjacent epidermal ectoderm, were dissected from a region just rostral to Hensen's node in stage 9-10 chick embryos.

[10] = target: T2, SmoA1 (Mus musculus, UniProt P56726, W539L); experiment: Shh pathway activity driven by oncogenic Smo (SmoA1, W539L) in NIH3T3 cells; assay type: cell-based; conditions: cholesterol depletion by cyclodextrin and compactin treatments
T2 construct: expressed in transfected cells
T2 sequence (P56726 33-793 W539L): as the sequence (P56726 33-793) above, with W507L counted along it
Experimental: as §1, with “We carried out cyclodextrin treatments for 30 min with methyl-β-cyclodextrin (Sigma) dissolved in Dulbecco's modified Eagle medium, preceded and followed by two washes with phosphate-buffered saline. Fetal bovine serum was depleted of lipids as described^23. We purchased compactin as an active sodium salt form of mevastatin (Biomol) and dissolved it in dimethylsulfoxide.” left out

[11] = system: Hh pathway; experiment: Response of cells to ShhNp protein under sterol-specific perturbations (data not shown); assay type: cell-based
Description: Cyclodextrins form complexes with hydrophobic compounds including proteins and phospholipids in addition to sterols^6.

[12] = 400 μM cyclodextrin, 30 nM ShhN, 48 h

## CC[C@H](C)C(=O)O[C@H]1CCC=C2C=C[C@H](C)[C@H](CC[C@@H]3C[C@@H](O)CC(=O)O3)[C@H]21 [compactin]
[1]; continuous exposure to compactin
  ShhNp response under compactin alone: not affected

## Methyl-β-cyclodextrin
[2]
  sterol levels after initial transient cyclodextrin treatment, needed to affect pathway response: below 40 μg mg^−1 protein
[3]
  constitutive Hh pathway activity in Ptch−/− fibroblasts: dose-dependent reduction
[3]; listed as Cyclodextrin
  constitutive Hh pathway activity in Ptch−/− fibroblasts: blocked
[4]; 200 μM cyclodextrin, 30 nM ShhN, 48 h
  HNF3β and lSL1 marker expression: both HNF3μ and lSL1 were expressed
[4]; [12]
  high-threshold response to ShhN (HNF3β): blocked
  lSL1 expression (intermediate-threshold response, motor-neuron fate): substantially uniform expression of lSL1
[4]; 400 μM β-methyl CD in conjunction with 30 nM ShhN
  differentiation of neural plate explant cells as motor neurons: all cells
[4]; cyclodextrin treatment, concentration not given in legend
  cellular response to Shh protein (FIG. 2b): inhibited the cellular response to Shh protein
[5]
  developmental malformation of facial and midline structures: variable loss of midline tissues
[5]; listed as Cyclodextrin
  developmental malformation of facial and midline structures: variable loss of the frontonasal process and other midline structures; also recorded: holoprosencephaly
[6]
  Shh autoprocessing: no observable effect
[7]; Dhcr7 and Sc5d mutant MEFs, transient 30-min cyclodextrin, lipid-depleted medium, ShhNp 10 nM
  ability to respond to Shh signal: clear deficiencies in their ability to respond to Shh signal
[7]; cells heterozygous for Dhcr7 and Sc5d mutations, all growth conditions incl. transient cyclodextrin
  response to ShhNp stimulation: normal response
[8]
  Shh pathway activation by overexpressed wild-type Smo: inhibited
[9]
  BMP-induced migration of neural-crest cells: did not inhibit
[1]; continuous treatment with 500 μM cyclodextrin
  inhibition of Shh signal response: about 50%
[1]; continuous treatment with 2 mM cyclodextrin
  inhibition of Shh signal response: nearly complete inhibition
[1]; cyclodextrin in culture medium for the duration of ShhNp induction, comparable to 5 μM cyclopamine
  response to Shh signaling under chronic cyclodextrin: dose dependent manner; also recorded: inhibited
[1]; transient cyclodextrin before ShhNp induction, then compactin during induction
  Shh signal response, transient cyclodextrin combined with continuous compactin: blocked; also recorded: inhibited
[1]; transient cyclodextrin, sterol depletion maintained with compactin
  persistence of Hh pathway inhibition after cyclodextrin treatment: 72 h
[1]; transient treatment for 30 minutes before ShhNp, even at 15 mM cyclodextrin
  ShhNp response after transient cyclodextrin alone: did not affect response
[10]
  Shh pathway activity driven by SmoA1: resistant to inhibition

## C[C@@H]1[C@H](O)[C@@H](C)/C=C/C=C/CC/C=C/C=C/C=C/C=C/C(O[C@H]2O[C@H](C)[C@@H](O)[C@H](N)[C@@H]2O)CC2O[C@](O)(CC(O)C(O)CCC(O)CC(O)CC(O)CC(=O)O[C@H]1C)CC(O)C2C(=O)O (stereo partly shown) [nystatin]
[11]
  response of cells to ShhNp protein: blocked

## CCCCC[C@@H](O)[C@H]1C(=O)O[C@H](C)[C@@H](O)/C=C/C=C/C=C/C=C/C=C(\C)[C@@H](O)C[C@H](O)C[C@H](O)C[C@H](O)C[C@H](O)C[C@H](O)C[C@@H]1O [filipin]
[11]
  response of cells to ShhNp protein: blocked
